Measurements from ChEMBL document CHEMBL5214953, “Structure-activity-relationship study of semi-synthetically modified fusicoccins on their stabilization effect for 14-3-3-phospholigand interactions” (Bioorg Med Chem, 2022).
Activity calls are given as the source filed them. The calls are words filed in the database; no cut-off is given here.

Columns and labels:
[1] = Stabilization of mode-1 phosphopeptide FAM-KRSHpSVP binding to recombinant 14-3-3 zeta (unknown origin) measured by fluorescence polarization assay; design: species or system Homo sapiens
[2] = Stabilization of mode-3 phosphopeptide FAM-KRSHpSV binding to recombinant 14-3-3 zeta (unknown origin) measured by fluorescence polarization assay; design: species or system Homo sapiens
HL-60 [3] = test: Antiproliferative activity against human HL-60 cells at 5 to 80 uM measured after 48 hrs by WST assay; assay type: functional, cell-based; settings: dose 5-80 µM
HEK293 = test: Antiproliferative activity against human HEK293 cells at 5 to 80 uM measured after 48 hrs by WST assay; assay type: functional, cell-based; settings: dose 5-80 µM
HL-60 [4] = test: Antiproliferative activity against human HL-60 cells measured after 48 hrs by WST assay; assay type: functional, cell-based; settings: HL-60, 48 h

Row | Structure (SMILES) | Kd [1] [nM] | Kd [2] [nM] | Activity (HL-60 [3]) | Activity (HEK293) | IC50 (HL-60 [4]) [nM]
1 | CCOC[C@H]1CC[C@@H]2/C1=C\[C@@]1(C)CCC(C(C)C)=C1[C@@H](O[C@H]1O[C@@H]3COC(C)(C)O[C@H]3[C@H](O)[C@H]1O)[C@H](O)[C@@H]2C | 750 | – | – | – | –
2 | CCCNC[C@H]1O[C@H](O[C@@H]2C3=C(C(C)C)CC[C@]3(C)/C=C3/[C@@H](COC)CC[C@H]3[C@@H](C)[C@H]2O)[C@H](O)[C@@H](O)[C@@H]1O | 160 | 120 | Active | – | –
3 | COC[C@H]1CC[C@@H]2/C1=C\[C@@]1(C)CCC([C@H](C)CNC(=O)C(F)(F)F)=C1[C@@H](O[C@H]1O[C@@H]3COC(C)(C)O[C@H]3[C@H](O)[C@H]1O)[C@H](O)[C@@H]2C | 80 | 42 | – | Active | –
4 | C=CC(C)(C)OC[C@H]1O[C@H](O[C@@H]2C3=C(C(C)C)C[C@H](OCc4ccccc4C(=O)OC)[C@]3(C)/C=C3/[C@@H](COC)CC[C@H]3[C@@H](C)[C@H]2O)[C@H](O)[C@@H](O)[C@@H]1O | 660 | 530 | – | – | –
5 | CC(C)C1=C2[C@@H](O[C@H]3O[C@@H]4COC(C)(C)O[C@H]4[C@H](O)[C@H]3O)[C@H](O)[C@H](C)[C@@H]3CC[C@H](COC(F)(F)F)/C3=C/[C@@]2(C)CC1 | 650 | – | – | – | –
6 | C=CC(C)(C)OC[C@H]1O[C@H](O[C@@H]2C3=C(C(C)C)C[C@H](OCc4ccc(N=[N+]=[N-])cc4)[C@]3(C)/C=C3/[C@@H](COC)CC[C@H]3[C@@H](C)[C@H]2O)[C@H](O)[C@@H](O)[C@@H]1O | 620 | 320 | – | – | –
7 | COC[C@H]1CC[C@@H]2/C1=C\[C@@]1(C)CCC(C(C)C)=C1[C@@H](O[C@H]1O[C@H](CNCc3ccccc3)[C@@H](O)[C@H](O)[C@H]1O)[C@H](O)[C@@H]2C | 310 | 250 | – | – | < 5000
8 | COC[C@H]1CC[C@@H]2/C1=C\[C@@]1(C)CCC(C(C)C)=C1[C@@H](O[C@H]1O[C@H](CN)[C@@H](O)[C@H](O)[C@H]1O)[C@H](O)[C@@H]2C | 60 | 70 | Active | – | –
9 | C=CC(C)(C)OC[C@H]1O[C@H](O[C@@H]2C3=C(C(C)C)C[C@H](OCc4ccc(C#N)cc4)[C@]3(C)/C=C3/[C@@H](COC)CC[C@H]3[C@@H](C)[C@H]2O)[C@H](O)[C@@H](O)[C@@H]1O | 710 | 380 | – | – | –
10 | COC[C@H]1CC[C@@H]2/C1=C\[C@@]1(C)CCC([C@H](C)CNC(=O)C3CC3)=C1[C@@H](O[C@H]1O[C@@H]3COC(C)(C)O[C@H]3[C@H](O)[C@H]1O)[C@H](O)[C@@H]2C | 110 | 41 | – | Active | –
11 | COC[C@H]1CC[C@@H]2/C1=C\[C@@]1(C)CCC([C@H](C)CNC(C)=O)=C1[C@@H](O[C@H]1O[C@@H]3COC(C)(C)O[C@H]3[C@H](O)[C@H]1O)[C@H](O)[C@@H]2C | 110 | 44 | – | Active | –
12 | C=CC(C)(C)OC[C@H]1O[C@H](O[C@@H]2C3=C(C(C)C)C[C@H](O)[C@]3(C)/C=C3/[C@@H](COC)CC[C@H]3[C@@H](C)[C@H]2O)[C@H](O)[C@@H](O)[C@@H]1O | 430 | 77 | – | – | –
13 | C=CC(C)(C)OC[C@H]1O[C@H](O[C@@H]2C3=C(C(C)C)C[C@H](OCc4ccc(C(=O)OC)cc4)[C@]3(C)/C=C3/[C@@H](COC)CC[C@H]3[C@@H](C)[C@H]2O)[C@H](O)[C@@H](O)[C@@H]1O | 680 | 600 | – | – | –
14 | C=CC(C)(C)OC[C@H]1O[C@H](O[C@@H]2C3=C(C(C)C)C[C@H](OCc4ccc(C(=O)O)cc4)[C@]3(C)/C=C3/[C@@H](COC)CC[C@H]3[C@@H](C)[C@H]2O)[C@H](O)[C@@H](O)[C@@H]1O | 470 | 390 | – | – | –
15 | C=CC(C)(C)OC[C@H]1O[C@H](O[C@@H]2C3=C(C(C)C)C[C@H](OCc4ccccc4C(=O)O)[C@]3(C)/C=C3/[C@@H](COC)CC[C@H]3[C@@H](C)[C@H]2O)[C@H](O)[C@@H](O)[C@@H]1O | 540 | 480 | – | – | –
16 | COC[C@H]1CC[C@@H]2/C1=C\[C@@]1(C)CCC([C@H](C)CNC(=O)C3CCCCC3)=C1[C@@H](O[C@H]1O[C@@H]3COC(C)(C)O[C@H]3[C@H](O)[C@H]1O)[C@H](O)[C@@H]2C | 130 | 32 | – | Active | –
17 | CC(C)OC[C@H]1CC[C@@H]2/C1=C\[C@@]1(C)CCC(C(C)C)=C1[C@@H](O[C@H]1O[C@@H]3COC(C)(C)O[C@H]3[C@H](O)[C@H]1O)[C@H](O)[C@@H]2C | 680 | – | – | – | –
18 | COC[C@H]1CC[C@@H]2/C1=C\[C@@]1(C)CCC(C(C)C)=C1[C@@H](O[C@H]1O[C@@H]3CO[C@@H](OCCCN)[C@@H]3[C@H]1O)[C@H](O)[C@@H]2C | – | – | – | – | 10000
19 | C=CC(C)(C)OC[C@H]1O[C@H](O[C@@H]2C3=C(C(C)C)C[C@H](OCc4ccccc4N=[N+]=[N-])[C@]3(C)/C=C3/[C@@H](COC)CC[C@H]3[C@@H](C)[C@H]2O)[C@H](O)[C@@H](O)[C@@H]1O | 680 | 480 | – | – | –
20 | C=CC(C)(C)OC[C@H]1O[C@H](O[C@@H]2C3=C([C@H](C)CNC(C)=O)C[C@H](O)[C@]3(C)/C=C3/[C@@H](COC)CC[C@H]3[C@@H](C)[C@H]2O)[C@H](O)[C@@H](O)[C@@H]1O | 170 | 38 | – | – | –
21 | COC[C@H]1CC[C@@H]2/C1=C\[C@@]1(C)CCC(C(C)C)=C1[C@@H](O[C@H]1O[C@@H]3COC(C)(C)O[C@H]3[C@H](O)[C@H]1O)[C@H](O)[C@@H]2C | 230 | 96 | – | Active | –
